Test results taken from publication PMC11797554, “Chemical genetics reveals cross-regulation of plant developmental signaling by the immune peptide-receptor pathway” (Science Advances, 2024).

Columns and labels:
[1] = molecular target: CA-MPK6 (constitutively active MPK6) (Arabidopsis thaliana, UniProt Q39026, D218G/E222A); experiment: biochemical; type: binding
[2] = molecular target: T1, MPK6 (Arabidopsis thaliana, UniProt Q39026); experiment: BLI and ITC with recombinant MPK6; also in vitro kinase inhibition; type: binding
T1 construct: MPK6ΔNt (29 to 305)

[3] = molecular target: T1, MPK6; experiment: biochemical; parameters: biolayer interferometry (Octet Red96), GST-tagged protein on probe, 25 °C, 1:1 model; conditions: read-out: koff (s^-1)
[4] = molecular target: T1, MPK6; experiment: biochemical; parameters: biolayer interferometry (Octet Red96), GST-tagged protein on probe, 25 °C, 1:1 model; conditions: read-out: kon (M^-1s^-1)
[5] = molecular target: T1, MPK6; experiment: biochemical; parameters: isothermal titration calorimetry, 25 °C, PBS pH 7.4, 2% DMSO

T1 sequence (Q39026 29-305): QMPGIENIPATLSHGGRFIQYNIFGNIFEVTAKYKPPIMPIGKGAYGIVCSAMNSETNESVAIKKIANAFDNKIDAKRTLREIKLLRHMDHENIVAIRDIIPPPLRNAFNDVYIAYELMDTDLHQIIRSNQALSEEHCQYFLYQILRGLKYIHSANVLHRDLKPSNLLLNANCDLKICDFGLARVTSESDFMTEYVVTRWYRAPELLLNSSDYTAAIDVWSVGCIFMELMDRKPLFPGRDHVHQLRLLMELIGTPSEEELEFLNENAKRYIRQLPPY
Sequence of CA-MPK6 (constitutively active MPK6) (Q39026 29-305 D218G/E222A limits assumed): as the sequence (Q39026 29-305) above, with D190G, E194A counted along it

Kd [5] | SMILES | Kd [1] | Kd [2] | koff [3] | kon [4]
– | O=P(O)(O)C(O)c1ccc2ccccc2c1 (stereo not shown) [compound 2, hydroxy-2-naphthalenymethylphosphonic acid] | 58 ± 13 µM | 4.9 ± 0.6 µM | 0.0175 s⁻¹ | 3020 M⁻¹ s⁻¹
1.2 ± 0.3 µM | Nc1ncnc2c1ncn2[C@@H]1O[C@H](COP(=O)(O)OP(=O)(O)OP(=O)(O)O)[C@@H](O)[C@H]1O [ATP] | – | – | 0.0125 s⁻¹ | 8920 M⁻¹ s⁻¹
